In assay [1] the test system is rhinovirus B14. As to the kind of experiment: In vitro antiviral activity against human rhinovirus-14 using plaque reduction assay. In kind it is functional, human rhinovirus type 14. As to conditions: Rhinovirus B. A general note: In a plaque reduction assay, fewer plaques than in the control indicate reduced infectivity or spread.
For assay [2], the system named is Human rhinovirus 1A. As to the kind of experiment: In vitro antiviral activity against human rhinovirus-1A using plaque reduction assay. In kind it is functional.
Assay [3] relates to Human rhinovirus sp. Kind of assay: (§1) Minimum inhibitory concentration which inhibits 80% of serotypes was determined. It counts as functional.
In assay [4] the test system is rhinovirus B14. As to the kind of experiment: In vitro antiviral activity against human rhinovirus-14 using plaque reduction assay; not active. In kind it is functional, organism-based. As to conditions: human rhinovirus type 14.
Assay [5] in a line: as §1. As to conditions: Human rhinovirus sp. It counts as functional, human rhinovirus-1a, 14.
The test system of assay [6] is Human rhinovirus sp. Kind of assay: In vitro antiviral activity against human rhinovirus 14 serotype. In kind it is functional.
Assay [7] deals with Human rhinovirus sp. Kind of assay: In vitro antiviral activity against human rhinovirus 1A serotype. In kind it is functional.
Assay [8] has as its system Human rhinovirus sp. Kind of assay: In vitro antiviral activity against human rhinovirus 1B serotype. In kind it is functional.
Assay [9] concerns Human rhinovirus sp. Kind of assay: In vitro antiviral activity against human rhinovirus 2 serotype. In kind it is functional.
Assay [10] deals with Human rhinovirus sp. As to the kind of experiment: In vitro antiviral activity against human rhinovirus 50 serotype. In kind it is functional.
The test system of assay [11] is Human rhinovirus sp. Kind of assay: In vitro antiviral activity against human rhinovirus 6 serotype. It counts as functional.
The subject of assay [12] is Human rhinovirus sp. Kind of assay: In vitro antiviral activity against human rhinovirus 67 serotype. In kind it is functional.
Assay [13] concerns Human rhinovirus sp. As to the kind of experiment: In vitro antiviral activity against human rhinovirus 86 serotype. It counts as functional.
The subject of assay [14] is Human rhinovirus sp. Kind of assay: In vitro antiviral activity against human rhinovirus 89 serotype. It counts as functional.
For assay [15], the system named is Human rhinovirus sp. As to the kind of experiment: In vitro antiviral activity against human rhinovirus-15 serotype. It counts as functional.
For assay [16], the system named is Human rhinovirus sp. As to the kind of experiment: In vitro antiviral activity against human rhinovirus-21 serotype. In kind it is functional.
Assay [17] concerns Human rhinovirus sp. Kind of assay: In vitro antiviral activity against human rhinovirus-22 serotype. In kind it is functional.
Assay [18] concerns Human rhinovirus sp. Kind of assay: In vitro antiviral activity against human rhinovirus-25 serotype. It counts as functional.
Assay [19] deals with Human rhinovirus sp. As to the kind of experiment: In vitro antiviral activity against human rhinovirus-30 serotype. In kind it is functional.
For assay [20], the system named is Human rhinovirus sp. As to the kind of experiment: In vitro antiviral activity against human rhinovirus-41 serotype. It counts as functional.
In assay [21] the test system is Human rhinovirus 1A. As to the kind of experiment: In vitro antiviral activity against human rhinovirus-1A using plaque reduction assay; not active. It counts as functional, organism-based.

≈ marks a conversion by molar mass, not a printed value. Calls of active or inactive are those of the source. The rule behind the calls is not given here.

On to `CCc1cc(CCCOc2c(C)cc(-c3nnn(C)n3)cc2C)on1`, for which the MIC50 is 0.5 µM (≈ 0.171 µg/mL) against rhinovirus B14 [1] and 0.05 µM (≈ 0.0171 µg/mL) with Human rhinovirus 1A [2]. In the assay on Human rhinovirus sp. [3], this compound came in with an MIC80 of 0.41 µM (≈ 0.14 µg/mL).
Take `COCCOCOCc1cc(CCCCCOc2c(C)cc(-c3nnn(C)n3)cc2C)on1`: the values for the MIC50 against rhinovirus B14 [1] and against Human rhinovirus 1A [2] were 0.33 µM (≈ 0.152 µg/mL) and 2.89 µM (≈ 1.33 µg/mL), respectively.
For the compound `Cc1cc(-c2nnn(C)n2)cc(C)c1OCCCc1cc(CC(O)CO)no1` (stereo unspecified), the MIC50 entry with rhinovirus B14 [4] is “inactive”. This compound gave an MIC50 against Human rhinovirus 1A [2] of 0.67 µM (≈ 0.26 µg/mL).
Regarding `Cc1cc(CCCCCOc2c(Cl)cc(-c3nnn(C)n3)cc2Cl)on1`, the MIC50 against rhinovirus B14 [1] and with Human rhinovirus 1A [2] was 0.38 µM (≈ 0.151 µg/mL) in each case. For the same compound, the MIC80 in the assay with Human rhinovirus sp. [3] turned out to be 0.25 µM (≈ 0.0991 µg/mL).
On to `Cc1cc(-c2nnn(C)n2)cc(C)c1OCCCCCc1cc(CO)no1`, for which the MIC50 with rhinovirus B14 [1] stood at 0.62 µM (≈ 0.23 µg/mL); with Human rhinovirus 1A [2], 0.18 µM (≈ 0.0669 µg/mL). The same compound yielded an MIC80 in the assay on Human rhinovirus sp. [3] of 1.59 µM (≈ 0.591 µg/mL).
For `CCCn1nnc(-c2cc(C)c(OCCCc3cc(C)no3)c(C)c2)n1`, the MIC50 in the assay with rhinovirus B14 [1] came out at 1.6 µM (≈ 0.569 µg/mL); against Human rhinovirus 1A [2] it was 6.5 µM (≈ 2.31 µg/mL). In addition, the MIC80 with Human rhinovirus sp. [3] came to 1.27 µM (≈ 0.451 µg/mL).
Regarding `Cc1cc(CCCOc2c(C)cc(-c3nnn(C)n3)cc2C)on1`, the MIC50 with rhinovirus B14 [1] was found to be 1.74 µM (≈ 0.57 µg/mL); with Human rhinovirus 1A [2], 0.11 µM (≈ 0.036 µg/mL). Moreover, the MIC80 in [5] was determined as 0.4 µM (≈ 0.131 µg/mL). Further, the MIC in the assay with Human rhinovirus sp. [3] was determined as 0.4 µM (≈ 0.131 µg/mL); in the assay on Human rhinovirus sp. [6], 1.7 µM (≈ 0.557 µg/mL); with Human rhinovirus sp. [7] it was 0.11 µM (≈ 0.036 µg/mL); against Human rhinovirus sp. [8], 0.03 µM (≈ 0.00982 µg/mL); in the assay on Human rhinovirus sp. [9] it was 0.02 µM (≈ 0.00655 µg/mL); with Human rhinovirus sp. [10] it was 0.23 µM (≈ 0.0753 µg/mL). In addition, the MIC is 2.2 µM (≈ 0.72 µg/mL) in the assay on Human rhinovirus sp. [11]; 0.14 µM (≈ 0.0458 µg/mL) against Human rhinovirus sp. [12]; 2.05 µM (≈ 0.671 µg/mL) against Human rhinovirus sp. [13]; 0.01 µM (≈ 0.00327 µg/mL) with Human rhinovirus sp. [14]; 0.18 µM (≈ 0.0589 µg/mL) with Human rhinovirus sp. [15]; 0.02 µM (≈ 0.00655 µg/mL) against Human rhinovirus sp. [16]. For the same compound, the MIC amounted to 0.05 µM (≈ 0.0164 µg/mL) in the assay on Human rhinovirus sp. [17], 0.06 µM (≈ 0.0196 µg/mL) with Human rhinovirus sp. [18], 0.07 µM (≈ 0.0229 µg/mL) in the assay with Human rhinovirus sp. [19] and 0.4 µM (≈ 0.131 µg/mL) against Human rhinovirus sp. [20].
Take `Cc1cc(COc2c(C)cc(-c3nnn(C)n3)cc2C)on1`: the MIC50 entry in the assay with rhinovirus B14 [4] and with Human rhinovirus 1A [21] was “inactive” throughout.
On to `Cc1cc(-c2nnn(C)n2)cc(C)c1OCCCc1cc(CCO)no1`, for which the MIC50 against rhinovirus B14 [1] is 2 µM (≈ 0.715 µg/mL); with Human rhinovirus 1A [2] it was 0.14 µM (≈ 0.05 µg/mL). Also, in the assay on Human rhinovirus sp. [3], the MIC80 came to 1.09 µM (≈ 0.39 µg/mL).
For the compound `Cc1cc(-c2nnn(C)n2)cc(C)c1OCCCc1cc(CC(C)O)no1` (stereo unspecified), the MIC50 against rhinovirus B14 [1] came to 1.8 µM (≈ 0.669 µg/mL); in the assay with Human rhinovirus 1A [2] it was 0.71 µM (≈ 0.264 µg/mL).
`Cc1cc(-c2nnn(C)n2)cc(C)c1OCCCc1cc(C(C)O)no1` (stereo unspecified): the MIC50 was 1.4 µM (≈ 0.5 µg/mL) against rhinovirus B14 [1] and 0.14 µM (≈ 0.05 µg/mL) in the assay on Human rhinovirus 1A [2]. In addition, the MIC80 in the assay on Human rhinovirus sp. [3] was 1.1 µM (≈ 0.393 µg/mL).
As to `Cc1cc(-c2nnn(C)n2)cc(C)c1OCCCc1cc(CC(C)C)no1`, the MIC50 against rhinovirus B14 [1] was determined as 0.32 µM (≈ 0.118 µg/mL); in the assay on Human rhinovirus 1A [2], 0.46 µM (≈ 0.17 µg/mL). Further, the MIC80 in the assay with Human rhinovirus sp. [3] turned out to be 1.5 µM (≈ 0.554 µg/mL).
For the compound `Cc1cc(-c2nnn(C)n2)cc(C)c1OCCCc1cc(CO)no1`, the MIC50 with rhinovirus B14 [1] turned out to be 3.4 µM (≈ 1.17 µg/mL); against Human rhinovirus 1A [2], 0.2 µM (≈ 0.0687 µg/mL). In the assay on Human rhinovirus sp. [3], this compound displayed an MIC80 of 3.4 µM (≈ 1.17 µg/mL).
As for `Cc1cc(-c2nnn(C)n2)cc(C)c1OCCCc1cc(C(C)C)no1`, the MIC50 was found to be 0.73 µM (≈ 0.259 µg/mL) in the assay on rhinovirus B14 [1] and 0.28 µM (≈ 0.0995 µg/mL) in the assay on Human rhinovirus 1A [2]. The MIC80 against Human rhinovirus sp. [3] came to 0.73 µM (≈ 0.259 µg/mL).
The compound `Cc1cc(CCCCCOc2c(C)cc(-c3nnn(CCO)n3)cc2C)on1` had an MIC50 with rhinovirus B14 [1] of 4.35 µM (≈ 1.68 µg/mL). Moreover, in the assay with Human rhinovirus 1A [21], the MIC50 result is “inactive”.
For the compound `CCCc1cc(CCCOc2c(C)cc(-c3nnn(C)n3)cc2C)on1`, the MIC50 with rhinovirus B14 [1] and in the assay with Human rhinovirus 1A [2] was 0.12 µM (≈ 0.0427 µg/mL) throughout. The MIC against Human rhinovirus sp. [3] turned out to be 0.2 µM (≈ 0.0711 µg/mL); against Human rhinovirus sp. [6], 0.12 µM (≈ 0.0427 µg/mL); in the assay on Human rhinovirus sp. [7], 0.12 µM (≈ 0.0427 µg/mL); with Human rhinovirus sp. [8] it was 0.03 µM (≈ 0.0107 µg/mL); against Human rhinovirus sp. [9], 0.04 µM (≈ 0.0142 µg/mL); against Human rhinovirus sp. [10], 0.09 µM (≈ 0.032 µg/mL). The MIC stood at 0.15 µM (≈ 0.0533 µg/mL) against Human rhinovirus sp. [11]; 0.22 µM (≈ 0.0782 µg/mL) against Human rhinovirus sp. [12]; 0.12 µM (≈ 0.0427 µg/mL) against Human rhinovirus sp. [13]; 0.02 µM (≈ 0.00711 µg/mL) with Human rhinovirus sp. [14]; 0.68 µM (≈ 0.242 µg/mL) in the assay with Human rhinovirus sp. [15]; 0.02 µM (≈ 0.00711 µg/mL) with Human rhinovirus sp. [16]. For the same compound, the MIC was 0.08 µM (≈ 0.0284 µg/mL) in the assay on Human rhinovirus sp. [17], 0.006 µM (≈ 0.00213 µg/mL) in the assay on Human rhinovirus sp. [18], 0.2 µM (≈ 0.0711 µg/mL) in the assay with Human rhinovirus sp. [19] and 0.93 µM (≈ 0.331 µg/mL) against Human rhinovirus sp. [20]. Also, the MIC80 with Human rhinovirus sp. [3] was 0.2 µM (≈ 0.0711 µg/mL).
For the compound `COC(=O)Cn1nnc(-c2cc(C)c(OCCCCCc3cc(C)no3)c(C)c2)n1`, the MIC50 result in the assay on rhinovirus B14 [4] and in the assay on Human rhinovirus 1A [21] was “inactive” each time.
Take `Cc1cc(-c2nnn(C)n2)cc(C)c1OCCCCCc1cc(COCOCCO)no1`: the MIC50 against rhinovirus B14 [1] worked out at 0.06 µM (≈ 0.0267 µg/mL); against Human rhinovirus 1A [2], 4.03 µM (≈ 1.8 µg/mL).
As to `Cc1cc(-c2nnn(C)n2)cc(C)c1OCCCCCc1cc(C(=O)O)no1`, the MIC50 is 30.4 µM (≈ 11.7 µg/mL) against rhinovirus B14 [1] and 1.4 µM (≈ 0.54 µg/mL) in the assay with Human rhinovirus 1A [2].

Source of the values: ChEMBL document CHEMBL1126867, “Antipicornavirus activity of tetrazole analogues related to disoxaril” (1993).
